Results from ChEMBL document CHEMBL1201862, “PubChem BioAssay data set” (2004).
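Five concentrations, 48 hours, 96-well plates. GI50 is the concentration that inhibits growth by half.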 The source made the active and inactive calls. Rule as the data show it: active = GI50 up to about 1.1 µM and inactive = higher.

Key:
Assay in all cases: inhibition of tumour cell growth, NCI panel, 48 h
A549 = test system: A549
HCC 2998 = test system: HCC 2998
SK-OV-3 = test system: SK-OV-3
HT-29 = test system: HT-29
SK-MEL-5 = test system: SK-MEL-5
HL-60 = test system: HL-60
ACHN = test system: ACHN
Hs-578T = test system: Hs-578T
M14 = test system: M14
EKVX = test system: EKVX
HCT-15 = test system: HCT-15
NCI-H226 = test system: NCI-H226
786-0 = test system: 786-0
SF-295 = test system: SF-295
IGROV-1 = test system: IGROV-1
MOLT-4 = test system: MOLT-4
RPMI-8226 = test system: RPMI-8226
KM12 = test system: KM12
UACC-62 = test system: UACC-62
PC-3 = test system: PC-3
RXF 393 = test system: RXF 393
OVCAR-3 = test system: OVCAR-3
HOP-92 = test system: HOP-92
UACC-257 = test system: UACC-257
OVCAR-4 = test system: OVCAR-4
MDA-MB-435 = test system: MDA-MB-435
MDA-MB-231 = test system: MDA-MB-231
NCI/ADR-RES = test system: NCI/ADR-RES
MDA-N = test system: MDA-N
OVCAR-5 = test system: OVCAR-5
A498 = test system: A498
K562 = test system: K562
LOX IMVI = test system: LOX IMVI
Malme-3M = test system: Malme-3M
SF-539 = test system: SF-539
COLO 205 = test system: COLO 205
NCI-H522 = test system: NCI-H522
U-251 = test system: U-251
NCI-H23 = test system: NCI-H23
OVCAR-8 = test system: OVCAR-8
MCF7 = test system: MCF7
SK-MEL-2 = test system: SK-MEL-2
UO-31 = test system: UO-31
CCRF-CEM = test system: CCRF-CEM
HOP-62 = test system: HOP-62
T47D = test system: T47D
TK-10 = test system: TK-10
HCT-116 = test system: HCT-116
SN12C = test system: SN12C

OCc1c2c(cc3c1CC1(C3)Cc3cc4c(c(CO)c3C1)CCC4)CCC2
GI50 (A549): 14.4 µM (inactive) | GI50 (HCC 2998): 17.5 µM (inactive) | GI50 (SK-OV-3): 17.5 µM (inactive) | GI50 (HT-29): 17.1 µM (inactive) | GI50 (SK-MEL-5): 5.81 µM (inactive) | GI50 (HL-60): 5.73 µM (inactive) | GI50 (ACHN): 10.3 µM (inactive) | GI50 (Hs-578T): 17.5 µM (inactive) | GI50 (M14): 18 µM (inactive) | GI50 (EKVX): 14.6 µM (inactive) | GI50 (HCT-15): 18 µM | GI50 (NCI-H226): 11.6 µM (inactive) | GI50 (786-0): 14.2 µM (inactive) | GI50 (SF-295): 12.4 µM (inactive) | GI50 (IGROV-1): 15.5 µM (inactive) | GI50 (MOLT-4): 9.95 µM (inactive) | GI50 (RPMI-8226): 21.1 µM (inactive) | GI50 (KM12): 16.4 µM (inactive) | GI50 (UACC-62): 16.7 µM (inactive) | GI50 (PC-3): 15.3 µM (inactive) | GI50 (RXF 393): 16.6 µM (inactive) | GI50 (OVCAR-3): 14.4 µM (inactive) | GI50 (HOP-92): 18.5 µM (inactive) | GI50 (UACC-257): 11.6 µM (inactive) | GI50 (OVCAR-4): 10.1 µM (inactive) | GI50 (MDA-MB-435): 20.6 µM (inactive) | GI50 (MDA-MB-231): 15.2 µM (inactive) | GI50 (NCI/ADR-RES): 15.1 µM (inactive) | GI50 (MDA-N): 15.1 µM (inactive) | GI50 (OVCAR-5): 19.8 µM (inactive) | GI50 (A498): 16.4 µM (inactive) | GI50 (K562): 7.35 µM (inactive) | GI50 (LOX IMVI): 15.1 µM (inactive) | GI50 (Malme-3M): 15.3 µM (inactive) | GI50 (SF-539): 17.4 µM (inactive) | GI50 (COLO 205): 24.3 µM (inactive) | GI50 (NCI-H522): 13.3 µM (inactive) | GI50 (U-251): 15.8 µM (inactive) | GI50 (NCI-H23): 13.1 µM (inactive) | GI50 (OVCAR-8): 18.6 µM (inactive) | GI50 (MCF7): 23.5 µM (inactive) | GI50 (SK-MEL-2): 19.8 µM (inactive) | GI50 (UO-31): 1.67 µM (inactive) | GI50 (CCRF-CEM): 8 µM (inactive) | GI50 (HOP-62): 15.6 µM (inactive) | GI50 (T47D): 12.7 µM (inactive) | GI50 (TK-10): 19.6 µM (inactive) | GI50 (HCT-116): 13.6 µM (inactive) | GI50 (SN12C): 16.9 µM (inactive)
